From ChEMBL document CHEMBL1201862, “PubChem BioAssay data set” (2004) come the findings set out here.

Common to all, as to assay: growth of human tumour cells (NCI), 48 h
Assay [1] relates to MDA-N.
In assay [2] the test system is U-251.
Assay [3] deals with KM12.
In assay [4] the test system is Hs-578T.
The subject of assay [5] is A498.
Assay [6] concerns MCF7.
For assay [7], the system named is SK-MEL-2.
In assay [8] the test system is HOP-62.
Assay [9] relates to DU-145.
Assay [10] deals with HCT-15.
The test system of assay [11] is MOLT-4.
For assay [12], the system named is SN12C.
In assay [13] the test system is SW-620.
In assay [14] the test system is TK-10.
Assay [15] deals with SK-MEL-28.
Assay [16] has as its system K562.
The subject of assay [17] is OVCAR-8.
Assay [18] has as its system RPMI-8226.

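Values below derive from 48-hour exposures of cells grown in 96-well plates, with endpoints linearly interpolated between the two concentrations bracketing the appropriate inhibition level. GI50 marks 50% less growth.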 The source made the active and inactive calls. Cut-off read from the data, not from the text of the source: active = GI50 up to about 1.1 µM and inactive = higher.

Consider `CC(=O)Nc1nc(C)c(S(=O)(=O)NC(=O)N2c3ccccc3CCc3ccccc32)s1`, for which the GI50 in [1], in [2], in [3], in [4], in [5] and in assay [6] was > 100 µM (inactive) each time. For the same compound, the GI50 in assay [7] was > 100 µM (inactive); in assay [8], > 100 µM (inactive); in [9] it was > 100 µM (inactive); in [10] it was over 100 µM; in assay [11] it was 89.5 µM (inactive); in assay [12] it was > 100 µM (inactive). Moreover, the GI50 in [13], in assay [14], in assay [15], in assay [16], in assay [17] and in assay [18] was > 100 µM (inactive) in each case.

In the case of `O=[N+]([O-])c1cc2c(c3nonc13)OCCCCO2`, the GI50 in [1] is 4.13 µM (inactive); in assay [2], 7.1 µM (inactive); in assay [3], 4.37 µM (inactive); in assay [4] it was 12.3 µM (inactive); in assay [5], 24.9 µM (inactive); in assay [6] it was 7.76 µM (inactive). For the same compound, the GI50 in assay [7] is 13.8 µM (inactive); in assay [8], 4.37 µM (inactive); in assay [9], 15 µM (inactive); in assay [10], 2.94 µM; in [11], 3.99 µM (inactive); in [12] it was 4.6 µM (inactive). Further, the GI50 is 5.86 µM (inactive) in assay [13]; 21.8 µM (inactive) in assay [14]; 9.89 µM (inactive) in assay [15]; 3.64 µM (inactive) in assay [16]; 4.36 µM (inactive) in assay [17]; 3.7 µM (inactive) in assay [18].

For the compound `COc1cc(C2c3cc4c(cc3C(O)C3CCC(=O)N23)OCO4)cc(OC)c1OC` (stereo not drawn), the GI50 in assay [1] was 5.56 µM (inactive); in assay [2] it was 26.1 µM (inactive); in assay [3], 12.6 µM (inactive); in [4], 34.5 µM (inactive); in assay [5] it was 42.6 µM (inactive); in assay [6], 16.5 µM (inactive). Further, the GI50 in [7] is 27 µM (inactive); in [8], 39.2 µM (inactive); in assay [9] it was 51.8 µM (inactive); in assay [10], 31 µM; in assay [11] it was 32.2 µM (inactive); in [12] it was 58.7 µM (inactive). Further, the GI50 in [13] was 36.6 µM (inactive); in assay [14], 69.2 µM (inactive); in assay [15] it was 16.8 µM (inactive); in [16] it was 26.5 µM (inactive); in assay [17], 37.2 µM (inactive); in [18] it was 27.1 µM (inactive).

For the compound `CCCN(CCc1ccc(-c2ccccc2)cc1)CCc1ccc2nn[nH]c2c1`, the GI50 in [1] was 6.07 µM (inactive); in assay [2], 12.9 µM (inactive); in assay [3], 11.9 µM (inactive); in [4], 17.4 µM (inactive); in assay [5], 17.3 µM (inactive); in assay [6], 11.6 µM (inactive). Also, the GI50 in assay [7] is 15.6 µM (inactive); in assay [8] it was 12.5 µM (inactive); in assay [9], 9.25 µM (inactive); in assay [10], 7.76 µM; in assay [11], 3.75 µM (inactive); in assay [12], 13.6 µM (inactive). Besides, the GI50 in assay [13] was 10.7 µM (inactive); in [14], 11.5 µM (inactive); in [15], 4.31 µM (inactive); in [16], 2.94 µM (inactive); in assay [17] it was 13.7 µM (inactive); in assay [18] it was 4.52 µM (inactive).

In the case of `CCOC(=O)c1c[nH]c2cc3c(cc2c1=O)CCS3`, the GI50 in assay [1], in [2], in assay [3], in [4], in assay [5] and in assay [6] was > 100 µM (inactive) each time. Also, the GI50 in assay [7] is > 100 µM (inactive); in assay [8], > 100 µM (inactive); in [9] it was > 100 µM (inactive); in [10], over 100 µM; in assay [11], > 100 µM (inactive); in assay [12], > 100 µM (inactive). Also, the GI50 in [13], in assay [14], in assay [15], in assay [16], in assay [17] and in assay [18] was > 100 µM (inactive) throughout.

Turning to `COC(=O)NC(Cc1ccccc1)NC(C)=O` (stereo not drawn), the GI50 in assay [1] is > 100 µM (inactive); in assay [2], > 100 µM (inactive); in assay [3], > 100 µM (inactive); in assay [4], 5.3 µM (inactive); in [5] it was > 100 µM (inactive); in assay [6], > 100 µM (inactive). For the same compound, the GI50 in assay [7] was > 100 µM (inactive); in [8] it was > 100 µM (inactive); in [9], > 100 µM (inactive); in assay [10], over 100 µM; in [11], > 100 µM (inactive); in [12], > 100 µM (inactive). In addition, the GI50 in [13], in [14], in assay [15], in assay [16], in [17] and in assay [18] was > 100 µM (inactive) in each case.

Take `S=C=NCc1ccccc1` [BENZYL ISOTHIOCYANATE]: the GI50 in [1] was 1.18 µM (inactive); in assay [2], 3.07 µM (inactive); in assay [3], 0.895 µM (active); in assay [4] it was 7.08 µM (inactive); in assay [5] it was 4.13 µM (inactive); in assay [6], 3.23 µM (inactive). Further, the GI50 was 6.35 µM (inactive) in [7]; 3.05 µM (inactive) in [8]; 4.13 µM (inactive) in assay [9]; 3.36 µM in assay [10]; 1.31 µM (inactive) in [11]; 3.7 µM (inactive) in assay [12]. The GI50 was 2.35 µM (inactive) in assay [13]; 4.37 µM (inactive) in assay [14]; 3.08 µM (inactive) in assay [15]; 0.697 µM (active) in assay [16]; 2.62 µM (inactive) in assay [17]; 0.456 µM (active) in [18].

As to `CC(Cl)CC(=O)OCC1CCCN2CCCCC12` (stereo not drawn), the GI50 in assay [1], in assay [2], in [3], in assay [4], in [5] and in assay [6] was > 100 µM (inactive) each time. The GI50 is > 100 µM (inactive) in assay [7]; > 100 µM (inactive) in [8]; > 100 µM (inactive) in [9]; over 100 µM in [10]; > 100 µM (inactive) in assay [11]; > 100 µM (inactive) in assay [12]. For the same compound, the GI50 in assay [13], in assay [14], in assay [15], in assay [16], in [17] and in assay [18] was > 100 µM (inactive) throughout.

For the compound `CN1CCCCC1CCN1CCCCC1` (stereo not drawn), the GI50 in [1], in assay [2], in assay [3], in [4], in assay [5] and in [6] was > 100 µM (inactive) throughout. For the same compound, the GI50 in [7] is > 100 µM (inactive); in assay [8], > 100 µM (inactive); in [9], > 100 µM (inactive); in [10], over 100 µM; in [11], > 100 µM (inactive); in assay [12], > 100 µM (inactive). The GI50 in assay [13], in assay [14], in assay [15], in assay [16], in [17] and in assay [18] was > 100 µM (inactive) each time.

With `CCOC(=O)N[C@H]1CCc2cc(OC)c(OC)c(OC)c2-c2ccc(SC)c(=O)cc21`, the GI50 in assay [1], in assay [2], in assay [3], in [4], in assay [5] and in [6] was < 0.01 µM (active) each time. The GI50 is < 0.01 µM (active) in assay [7]; < 0.01 µM (active) in assay [8]; < 0.01 µM (active) in assay [9]; under 0.01 µM in [10]; < 0.01 µM (active) in [11]; < 0.0287 µM (active) in assay [12]. For the same compound, the GI50 in assay [13] is < 0.01 µM (active); in assay [14] it was 1 µM (active); in [15], 0.746 µM (active); in assay [16] it was < 0.01 µM (active); in [17], < 0.01 µM (active); in assay [18] it was < 0.01 µM (active).

As for `COC(=O)c1c(C)[n+]([O-])c2cc(Cl)c(Cl)cc2[n+]1[O-]`, the GI50 was 19.5 µM (inactive) in [1]; 16.5 µM (inactive) in assay [2]; 11.2 µM (inactive) in assay [3]; 21.9 µM (inactive) in assay [4]; 10.2 µM (inactive) in [5]; 14.5 µM (inactive) in [6]. Moreover, the GI50 in [7] is 19.4 µM (inactive); in [8], 26 µM (inactive); in assay [9], 12.5 µM (inactive); in [10], 9.59 µM; in assay [11], 12.6 µM (inactive); in assay [12], 18.2 µM (inactive). The GI50 is 18.3 µM (inactive) in assay [13]; 11.3 µM (inactive) in assay [14]; 27.4 µM (inactive) in assay [15]; 32.2 µM (inactive) in [16]; 16.6 µM (inactive) in [17]; 4.17 µM (inactive) in assay [18].
